For assay [1], the system named is NCI-H460, human non-small cell lung cancer cells. In words: Cell-MTS cellular proliferation assay, NCI-H460. Format: cell-based. The conditions noted are these: Homo sapiens, 168 hr incubation. In a few lines: (§1)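 Cells seeded to reach ~90% confluence at 7 days (Raji 15,000, HL-60 5,000, NCI-H460 3,000 per well); 11-point compound dilution, 100 µM to 2.0 nM final, added 24 h after plating. Exposure 168 hr at 37 °C, 5% CO2; MTS read at OD490. IC50 from background-subtracted OD490 normalized to DMSO controls.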
On the technique in general: Tetrazolium dyes change colour on reduction, which living cells bring about.

In assay [2] the test system is HL-60, human proleukemia cells. In words: Cell-MTS cellular proliferation assay, HL-60. Format: cell-based. The conditions noted are these: Homo sapiens, HL-60 cells, 168 hr incubation. In a few lines:
as §1

Assay [3] deals with Raji, human Burkitts lymphoma cells. In words: Cell-MTS cellular proliferation assay, Raji. The conditions noted are these: Homo sapiens, 168 hr incubation. Format: cell-based. In a few lines:
as §1

The target of assay [4] is BRD4(BD1) (Homo sapiens (Human), UniProt O60885). In words: In vitro enzyme inhibition assay (BRD4 AlphaScreen, H4-tetraacetyl peptide). Format: binding. The conditions noted are these: BRD4(BD1) 2 nM, peptide 15 nM. In a few lines: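 His-tagged BRD4(BD1), 2 nM, with 15 nM biotinylated H4K5/8/12/16(Ac) peptide in HEPES pH 7.3 buffer, 0.4% DMSO, 20 min RT with compound. Streptavidin donor and Ni-chelate acceptor beads (5 μg/mL) then equilibrated 2 h. AlphaScreen signal; IC50 by four-parameter fit.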
A general note: In Alpha technology, singlet oxygen from a donor bead excites a nearby acceptor bead.

Molecules are shown by their SMILES. Counter-ions that a name gives are not always drawn.

The IC50 is the concentration at which inhibition is half-maximal. Turning to `CCS(=O)(=O)Nc1cc(-c2cn(C)c(=O)c3ccccc23)c2oc(C3CC3)cc2c1` [Example 82, N-[2-cyclopropyl-7-(2-methyl-1-oxoisoquinolin-4-yl)-1-benzofuran-5-yl]ethanesulfonamide], the IC50 was ≤ 0.5 µM in assay [1], ≤ 500 nM in assay [2], ≤ 500 nM in assay [3] and ≤ 500 nM in assay [4].

Regarding `Cc1cc(-c2cc(NS(C)(=O)=O)cc3cc(-c4ccccc4)oc23)cn(C)c1=O` [Example 83, N-[7-(1,5-dimethyl-6-oxopyridin-3-yl)-2-phenyl-1-benzofuran-5-yl]methane-sulfonamide], the IC50 in assay [1] is 0.5 to 5 µM; in assay [2] it was 500 to 5000 nM; in assay [3], 500 to 5000 nM; in assay [4], ≤ 500 nM.

Turning to `Cn1cc(-c2cc(NS(C)(=O)=O)cc3cc(-c4ccccc4)oc23)c2ccccc2c1=O` [Example 84, N-[7-(2-methyl-1-oxoisoquinolin-4-yl)-2-phenyl-1-benzofuran-5-yl]methanesulfonamide], the IC50 is ≤ 0.5 µM in assay [1], ≤ 500 nM in assay [2], ≤ 500 nM in assay [3] and ≤ 500 nM in assay [4].

In the case of `Cc1cc(-c2cc(S(C)(=O)=O)ccc2OCC2CC2)c2n(c1=O)CCC2` [Example 85, 8-[2-(cyclopropylmethoxy)-5-methylsulfonylphenyl]-6-methyl-2,3-dihydro-1H-indolizin-5-one], the IC50 in assay [1] was > 5 µM; in assay [2], ≤ 500 nM; in assay [3] it was 500 to 5000 nM; in assay [4], ≤ 500 nM.

For the compound `Cc1cc(-c2cc(NS(C)(=O)=O)ccc2Oc2ccc(F)cc2F)c2n(c1=O)CCC2` [Example 86, N-[4-(2,4-difluorophenoxy)-3-(6-methyl-5-oxo-2,3-dihydro-1H-indolizin-8-yl)phenyl]methanesulfonamide], the IC50 is > 5 µM in assay [1], ≤ 500 nM in assay [2], ≤ 500 nM in assay [3] and ≤ 500 nM in assay [4].

For the compound `Cc1cc(-c2cc(S(C)(=O)=O)ccc2OCC2CC2)c2n(c1=O)CC(C)(C)C2` [Example 87, 8-[2-(cyclopropylmethoxy)-5-methylsulfonylphenyl]-2,2,6-trimethyl-1,3-dihydroindolizin-5-one], the IC50 is > 5 µM in assay [1], ≤ 500 nM in assay [2], ≤ 500 nM in assay [3] and ≤ 500 nM in assay [4].

Regarding `Cc1cc(-c2cc(NS(C)(=O)=O)ccc2Oc2ccc(F)cc2F)c2n(c1=O)CC(C)(C)C2` [Example 88, N-[4-(2,4-difluorophenoxy)-3-(2,2,6-trimethyl-5-oxo-1,3-dihydroindolizin-8-yl)phenyl]methanesulfonamide], the IC50 in assay [1] was > 5 µM; in assay [2], ≤ 500 nM; in assay [3], ≤ 500 nM; in assay [4], ≤ 500 nM.

For `COc1cc(-c2cc3c(S(C)(=O)=O)cccc3n2CCC2CC2)cn(C)c1=O` [Example 91, 5-[1-(2-cyclopropylethyl)-4-methylsulfonylindol-2-yl]-3-methoxy-1-methylpyridin-2-one], the IC50 in assay [1] was > 5 µM; in assay [2] it was ≤ 500 nM; in assay [3], ≤ 500 nM; in assay [4], ≤ 500 nM.

Regarding `Cc1cc(-c2cc(NS(C)(=O)=O)c3nc(C(F)(F)F)n(CC4CC4)c3c2)cn(C)c1=O` [Example 92, N-[1-(cyclopropylmethyl)-6-(1,5-dimethyl-6-oxopyridin-3-yl)-2-(trifluoromethyl)benzimidazol-4-yl]methanesulfonamide], the IC50 is 0.5 to 5 µM in assay [1], ≤ 500 nM in assay [2], ≤ 500 nM in assay [3] and ≤ 500 nM in assay [4].

With `COc1cc(-c2cc(NS(C)(=O)=O)c3nc(C(F)(F)F)n(CC4CC4)c3c2)cn(C)c1=O` [Example 93, N-[1-(cyclopropylmethyl)-6-(5-methoxy-1-methyl-6-oxopyridin-3-yl)-2-(trifluoromethyl)benzimidazol-4-yl]methanesulfonamide], the IC50 was > 5 µM in assay [1], ≤ 500 nM in assay [2], ≤ 500 nM in assay [3] and ≤ 500 nM in assay [4].

With `CCCCn1c(C)nc2c(NS(C)(=O)=O)cc(-c3cc(C)c(=O)n(C)c3)cc21` [Example 94, N-[1-butyl-6-(1,5-dimethyl-6-oxopyridin-3-yl)-2-methylbenzimidazol-4-yl]methanesulfonamide hydrochloride], the IC50 was > 5 µM in assay [1], ≤ 500 nM in assay [2], ≤ 500 nM in assay [3] and ≤ 500 nM in assay [4].

Regarding `CCCCn1c(C)nc2c(NS(C)(=O)=O)cc(-c3cc(OC)c(=O)n(C)c3)cc21` [Example 95, N-[1-butyl-6-(5-methoxy-1-methyl-6-oxopyridin-3-yl)-2-methylbenzimidazol-4-yl]methanesulfonamide hydrochloride], the IC50 in assay [1] was > 5 µM; in assay [2], ≤ 500 nM; in assay [3], ≤ 500 nM; in assay [4] it was ≤ 500 nM.

In the case of `Cc1cc(-c2cc(CS(C)(=O)=O)c3nc(C)n(CC4CC4)c3c2)cn(C)c1=O` [Example 96, 5-[3-(cyclopropylmethyl)-2-methyl-7-(methylsulfonylmethyl)benzimidazol-5-yl]-1,3-dimethylpyridin-2-one], the IC50 in assay [1] is > 5 µM; in assay [2], ≤ 500 nM; in assay [3] it was ≤ 500 nM; in assay [4], ≤ 500 nM.

Consider `CCOc1nc2c(CS(C)(=O)=O)cc(-c3cc(C)c(=O)n(C)c3)cc2n1CC1CC1` [Example 97, 5-[3-(cyclopropylmethyl)-2-ethoxy-7-(methylsulfonylmethyl)benzimidazol-5-yl]-1,3-dimethylpyridin-2-one], for which the IC50 was > 5 µM in assay [1], ≤ 500 nM in assay [2], ≤ 500 nM in assay [3] and ≤ 500 nM in assay [4].

Take `CCOc1nc2c(CS(C)(=O)=O)cc(-c3cc(OC)c(=O)n(C)c3)cc2n1CC1CC1` [Example 98, 5-[3-(cyclopropylmethyl)-2-ethoxy-7-(methylsulfonylmethyl)benzimidazol-5-yl]-3-methoxy-1-methylpyridin-2-one]: the IC50 in assay [1] was > 5 µM; in assay [2] it was ≤ 500 nM; in assay [3] it was ≤ 500 nM; in assay [4], ≤ 500 nM.

Consider `COc1nc2c(CS(C)(=O)=O)cc(-c3cc(C)c(=O)n(C)c3)cc2n1CC1CC1` [Example 99, 5-[3-(cyclopropylmethyl)-2-methoxy-7-(methylsulfonylmethyl)benzimidazol-5-yl]-1,3-dimethylpyridin-2-one], for which the half-maximal inhibitory concentration (IC50) is > 5 µM in assay [1], ≤ 500 nM in assay [2], ≤ 500 nM in assay [3] and ≤ 500 nM in assay [4].

`CCS(=O)(=O)Cc1cc(-c2cc(OC)c(=O)n(C)c2)c2oc(C3CC3)nc2c1` [Example 100, 5-[2-cyclopropyl-5-(ethylsulfonylmethyl)-1,3-benzoxazol-7-yl]-3-methoxy-1-methylpyridin-2-one]: the IC50 in assay [1] was > 5 µM; in assay [2], ≤ 500 nM; in assay [3] it was ≤ 500 nM; in assay [4], ≤ 500 nM.

Regarding `Cc1cc(-c2cc(NS(C)(=O)=O)c3oc(=O)n(CC4CC4)c3c2)cn(C)c1=O` [Example 101, N-[3-(cyclopropylmethyl)-5-(1,5-dimethyl-6-oxopyridin-3-yl)-2-oxo-1,3-benzoxazol-7-yl]methanesulfonamide], the IC50 is > 5 µM in assay [1], 500 to 5000 nM in assay [2], 500 to 5000 nM in assay [3] and ≤ 500 nM in assay [4].

On to `Cc1cc(-c2cc(NS(C)(=O)=O)c3oc(=O)n(Cc4ccc(F)cc4)c3c2)cn(C)c1=O` [Example 102, N-[5-(1,5-dimethyl-6-oxopyridin-3-yl)-3-[(4-fluorophenyl)methyl]-2-oxo-1,3-benzoxazol-7-yl]methanesulfonamide], for which the IC50 in assay [1] was > 5 µM; in assay [2], ≤ 500 nM; in assay [3], ≤ 500 nM; in assay [4], ≤ 500 nM.
